Measurements as given in patent US20230113037A1 (Bayer Aktiengesellschaft, priority 2019, published 2023).

Key:
[1] = target: T1, AHR (Mus musculus, UniProt P30561); test: In vitro assay 3: antagonism in mouse cell line (AHR transactivation, firefly luciferase reporter, kynurenic acid prestimulated); format: cell-based; conditions: mouse Hepa 1c1c7 cells, 200 μM kynurenic acid, 20 hours, read-out: AHR Antagonism Mouse IC50
T1 sequence (P30561 1-848 P471L/N533S/M589L): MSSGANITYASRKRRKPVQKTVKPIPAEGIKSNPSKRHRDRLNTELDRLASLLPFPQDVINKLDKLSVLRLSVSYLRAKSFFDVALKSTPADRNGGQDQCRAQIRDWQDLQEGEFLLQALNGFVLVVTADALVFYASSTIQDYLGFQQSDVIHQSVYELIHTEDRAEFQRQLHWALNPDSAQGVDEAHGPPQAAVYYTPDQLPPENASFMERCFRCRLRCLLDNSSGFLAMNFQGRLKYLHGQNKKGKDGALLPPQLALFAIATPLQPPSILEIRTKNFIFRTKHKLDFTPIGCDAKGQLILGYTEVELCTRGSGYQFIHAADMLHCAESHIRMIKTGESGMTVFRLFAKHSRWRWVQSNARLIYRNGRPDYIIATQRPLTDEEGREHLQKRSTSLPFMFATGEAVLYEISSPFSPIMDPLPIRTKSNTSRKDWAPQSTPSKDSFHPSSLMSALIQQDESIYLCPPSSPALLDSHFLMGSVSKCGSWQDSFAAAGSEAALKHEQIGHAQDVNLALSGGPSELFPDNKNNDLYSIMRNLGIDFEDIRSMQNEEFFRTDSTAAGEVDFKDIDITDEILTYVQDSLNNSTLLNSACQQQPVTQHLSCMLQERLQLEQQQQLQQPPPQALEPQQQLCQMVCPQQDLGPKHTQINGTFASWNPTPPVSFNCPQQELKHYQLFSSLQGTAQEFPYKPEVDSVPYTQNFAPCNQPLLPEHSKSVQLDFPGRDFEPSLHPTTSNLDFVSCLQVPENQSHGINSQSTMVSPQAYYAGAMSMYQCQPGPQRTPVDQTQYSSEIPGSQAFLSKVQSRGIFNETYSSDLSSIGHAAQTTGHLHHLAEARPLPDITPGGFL
Summary of the method: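 Mouse cells stably carrying a DRE-driven, AHR-inducible firefly luciferase reporter were prestimulated with the endogenous agonist kynurenic acid before compound addition. Luciferase activity was measured by luminescence and normalized to positive and negative controls, with cells lacking kynurenic acid serving as full-inhibition control. Repeat tests are reported as mean or median.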

[2] = target: T2, AHR (Homo sapiens, UniProt P35869); test: In vitro assay 1: antagonism in human cell line (AHR transactivation, firefly luciferase reporter, kynurenic acid prestimulated); format: cell-based; conditions: AHR Antagonism Human IC50 [M]
T2 construct: U87 MG glioblastoma cells (ATCC #HTB-14) endogenously expressing AHR; endogenous in cells; host or cells: U87 MG glioblastoma cells (ATCC #HTB-14)
T2 sequence (P35869 11-848): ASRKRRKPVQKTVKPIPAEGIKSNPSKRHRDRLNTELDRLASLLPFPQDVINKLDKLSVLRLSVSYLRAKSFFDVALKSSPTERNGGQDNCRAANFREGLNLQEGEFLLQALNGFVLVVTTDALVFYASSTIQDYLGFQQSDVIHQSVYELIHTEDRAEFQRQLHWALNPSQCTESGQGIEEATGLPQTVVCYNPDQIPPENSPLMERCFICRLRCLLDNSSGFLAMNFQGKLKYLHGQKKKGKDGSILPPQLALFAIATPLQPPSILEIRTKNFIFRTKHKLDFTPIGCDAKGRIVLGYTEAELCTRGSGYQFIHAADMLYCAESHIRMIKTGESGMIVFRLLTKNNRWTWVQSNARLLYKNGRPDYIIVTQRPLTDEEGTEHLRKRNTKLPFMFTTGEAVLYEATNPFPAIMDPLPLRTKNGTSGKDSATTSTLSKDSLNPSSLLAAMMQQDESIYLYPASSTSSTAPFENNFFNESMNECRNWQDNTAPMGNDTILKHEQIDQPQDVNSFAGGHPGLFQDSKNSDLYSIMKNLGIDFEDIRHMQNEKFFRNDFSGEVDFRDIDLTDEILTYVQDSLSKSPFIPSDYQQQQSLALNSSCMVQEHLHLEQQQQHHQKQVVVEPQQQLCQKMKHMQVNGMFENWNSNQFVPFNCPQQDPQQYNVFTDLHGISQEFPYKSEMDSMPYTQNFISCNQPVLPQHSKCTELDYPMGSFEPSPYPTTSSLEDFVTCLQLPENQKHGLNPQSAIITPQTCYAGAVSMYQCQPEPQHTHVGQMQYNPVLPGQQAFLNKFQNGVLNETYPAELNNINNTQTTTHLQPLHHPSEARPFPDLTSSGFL
Summary of the method: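 U87 MG + DRE-firefly/constitutive-Renilla stable reporters; kynurenic acid prestim; dual-luc read; Renilla = tox; normalized vs pos/neg controls (pos: 150 μM KYNA + 5 μM staurosporine).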

IC50 [1] | IC50 [2] | Compound
0.669 nM | 7.84e-10 M | O=C1NCCCC[C@H]1Nc1nc2c(C(F)(F)F)cccc2c2nc(-c3cnn(C(F)F)c3)nn12 [Example 736, (3R)-3-({2-[1-(difluoromethyl)-1H-pyrazol-4-yl]-7-(trifluoromethyl)[1,2,4]triazolo[1,5-c]quinazolin-5-yl}amino)azepan-2-one]
15.1 nM | 7.64e-09 M | O=C1NCCCC[C@H]1Nc1nc2c(C(F)(F)F)cccc2c2nc(-c3cc[nH]n3)nn12 [Example 737, (3R)-3-{[2-(1H-pyrazol-3-yl)-7-(trifluoromethyl)[1,2,4]triazolo[1,5-c]quinazolin-5-yl]amino}azepan-2-one]
1.4 nM | 6.64e-10 M | CN1CCCC[C@@H](Nc2nc3c(C(F)(F)F)cccc3c3nc(-c4cnn(C)c4)nn23)C1=O [Example 739, (3R)-1-methyl-3-{[2-(1-methyl-1H-pyrazol-4-yl)-7-(trifluoromethyl)[1,2,4]triazolo[1,5-c]quinazolin-5-yl]amino}azepan-2-one]
1.65 nM | 1.22e-09 M | Cc1cc(-c2nc3c4cccc(C(F)(F)F)c4nc(N[C@@H]4CCCCNC4=O)n3n2)n(C)n1 [Example 740, (3R)-3-{[2-(1,3-dimethyl-1H-pyrazol-5-yl)-7-(trifluoromethyl)[1,2,4]triazolo[1,5-c]quinazolin-5-yl]amino}azepan-2-one]
1.41 nM | 7.02e-10 M | O=C1NCCCC[C@H]1Nc1nc2c(C(F)(F)F)cccc2c2nc(-c3cnn(C4CCC4)c3)nn12 [Example 741, (3R)-3-{[2-(1-cyclobutyl-1H-pyrazol-4-yl)-7-(trifluoromethyl)[1,2,4]triazolo[1,5-c]quinazolin-5-yl]amino}azepan-2-one]
1.9 nM | 8.31e-10 M | O=C1NCCCC[C@H]1Nc1nc2c(C(F)(F)F)cccc2c2nc(-c3cnn(CC4CC4)c3)nn12 [Example 742, (3R)-3-({2-[1-(cyclopropylmethyl)-1H-pyrazol-4-yl]-7-(trifluoromethyl)[1,2,4]triazolo[1,5-c]quinazolin-5-yl}amino)azepan-2-one]
1.73 nM | 1.26e-09 M | O=C1NCCCC[C@H]1Nc1nc2c(C(F)(F)F)cccc2c2nc(-c3cn(C4CC4)nc3C(F)F)nn12 [Example 743, (3R)-3-({2-[1-cyclopropyl-3-(difluoromethyl)-1H-pyrazol-4-yl]-7-(trifluoromethyl)[1,2,4]triazolo[1,5-c]quinazolin-5-yl}amino)azepan-2-one]
11.6 nM | 1.69e-09 M | O=C1NCCCC[C@H]1Nc1nc2c(C(F)(F)F)cccc2c2nc(-c3cnn(CC4CCC4)c3)nn12 [Example 744, (3R)-3-({2-[1-(cyclobutylmethyl)-1H-pyrazol-4-yl]-7-(trifluoromethyl)[1,2,4]triazolo[1,5-c]quinazolin-5-yl}amino)azepan-2-one]
0.656 nM | 3.9e-10 M | Cc1nn(C(C)C)cc1-c1nc2c3cccc(C(F)(F)F)c3nc(N[C@@H]3CCCCNC3=O)n2n1 [Example 748, (3R)-3-({2-[3-methyl-1-(propan-2-yl)-1H-pyrazol-4-yl]-7-(trifluoromethyl)[1,2,4]triazolo[1,5-c]quinazolin-5-yl}amino)azepan-2-one]

Further lines, the compound ahead of its results:

Compound | IC50 [1] | IC50 [2]
CCn1nc(C)c(-c2nc3c4cccc(C(F)(F)F)c4nc(N[C@@H]4CCCCNC4=O)n3n2)c1C [Example 738, (3R)-3-{[2-(1-ethyl-3,5-dimethyl-1H-pyrazol-4-yl)-7-(trifluoromethyl)[1,2,4]triazolo[1,5-c]quinazolin-5-yl]amino}azepan-2-one] | 1.03 nM | 3.4e-09 M
Cc1nn(C2CC2)c(C)c1-c1nc2c3cccc(C(F)(F)F)c3nc(N[C@@H]3CCCCNC3=O)n2n1 [Example 745, (3R)-3-{[2-(1-cyclopropyl-3,5-dimethyl-1H-pyrazol-4-yl)-7-(trifluoromethyl)[1,2,4]triazolo[1,5-c]quinazolin-5-yl]amino}azepan-2-one] | 1.14 nM | 4.41e-09 M
Cc1n[nH]cc1-c1nc2c3cccc(C(F)(F)F)c3nc(N[C@@H]3CCCCNC3=O)n2n1 [Example 746, (3R)-3-{[2-(3-methyl-1H-pyrazol-4-yl)-7-(trifluoromethyl)[1,2,4]triazolo[1,5-c]quinazolin-5-yl]amino}azepan-2-one] | 45.6 nM | 7.48e-09 M
CCc1nn(C2CC2)cc1-c1nc2c3cccc(C(F)(F)F)c3nc(N[C@@H]3CCCCNC3=O)n2n1 [Example 749, (3R)-3-{[2-(1-cyclopropyl-3-ethyl-1H-pyrazol-4-yl)-7-(trifluoromethyl)[1,2,4]triazolo[1,5-c]quinazolin-5-yl]amino}azepan-2-one] | 2.12 nM | 1.54e-09 M
Cc1nn(C)c(C)c1-c1nc2c3cccc(C(F)(F)F)c3nc(N[C@@H]3CCCCNC3=O)n2n1 [Example 750, (3R)-3-{[7-(trifluoromethyl)-2-(1,3,5-trimethyl-1H-pyrazol-4-yl)[1,2,4]triazolo[1,5-c]quinazolin-5-yl]amino}azepan-2-one] | 1.41 nM | 3.56e-09 M
CCCCNC(=O)[C@@H](C)Nc1nc2c(C(F)(F)F)cccc2c2nc(-c3cnn(C)c3)nn12 [Example 751, N-butyl-N^2-[2-(1-methyl-1H-pyrazol-4-yl)-7-(trifluoromethyl)[1,2,4]triazolo[1,5-c]quinazolin-5-yl]-D-alaninamid] | 54.7 nM | 1.47e-08 M
COc1cccc2c1nc(N[C@@H]1CCCCNC1=O)n1nc(-c3cnn(C)c3)nc21 [Example 752, (3R)-3-{[7-methoxy-2-(1-methyl-1H-pyrazol-4-yl)[1,2,4]triazolo[1,5-c]quinazolin-5-yl]amino}azepan-2-one] | 953 nM | 2.29e-07 M
CCn1cc(-c2nc3c4cccc(OC)c4nc(N[C@@H]4CCCCNC4=O)n3n2)c(C)n1 [Example 753, (3R)-3-{[2-(1-ethyl-3-methyl-1H-pyrazol-4-yl)-7-methoxy[1,2,4]triazolo[1,5-c]quinazolin-5-yl]amino}azepan-2-one] | 40.6 nM | 9.89e-09 M
CCn1cc(-c2nc3c4cccc(OC)c4nc(N[C@@H]4CCCCNC4=O)n3n2)cn1 [Example 754, (3R)-3-{[2-(1-ethyl-1H-pyrazol-4-yl)-7-methoxy[1,2,4]triazolo[1,5-c]quinazolin-5-yl]amino}azepan-2-one] | 292 nM | 7.97e-08 M
COc1cccc2c1nc(N[C@@H]1CCCCNC1=O)n1nc(-c3cn(C)nn3)nc21 [Example 756, (3R)-3-{[7-methoxy-2-(1-methyl-1H-1,2,3-triazol-4-yl)[1,2,4]triazolo[1,5-c]quinazolin-5-yl]amino}azepan-2-one] | 11700 nM | 4.49e-06 M
COc1cccc2c1nc(N[C@@H]1CCCCNC1=O)n1nc(-c3cnn(C4CC4)c3)nc21 [Example 757, (3R)-3-{[2-(1-cyclopropyl-1H-pyrazol-4-yl)-7-methoxy[1,2,4]triazolo[1,5-c]quinazolin-5-yl]amino}azepan-2-one] | 109 nM | 5.4e-08 M
